Results on 2 compounds are retold here after PMC5880945, “D-Arg^0-Bradykinin-Arg-Arg, a Latent Vasoactive Bradykinin B2 Receptor Agonist Metabolically Activated by Carboxypeptidases” (Frontiers in Pharmacology, 2018).

“Also recorded” adds a separate entry of the source. Read-outs that look alike come from different tables or passages of the source. Square brackets hold non-standard residues; d marks the D form. Peptide text beside a SMILES is read from it.

The subject of assay [1] is GFP-tagged rabbit B2R (B2R-GFP). Nature of the assay: B2R-GFP endocytosis and recycling, epifluorescence microscopy, HEK 293 cells. Type of assay: cell-based. Particulars: 30 min; for B2R-GFP internalization with Plummer’s inhibitor, in words: Plummer’s inhibitor alone. How it is done: This system, based on a serum-containing culture medium, contains ACE and Arg-carboxypeptidase activities ([Bachvarov et al., 2001]; [Charest-Morin et al., 2014]). r-BK or r-BK-RR were added to 35-mm Petri dishes containing the cells with optional pre-treatment with peptidase inhibitors and the cells were observed as described after 30 min of incubation at 37°C ([Charest-Morin et al., 2014]).

In assay [2] the test system is B2R, human isolated umbilical vein. Briefly: Human umbilical vein contractility assay (bioassay for the endogenous B2R). To be noted: for EC50: 95% confidence limits in parentheses, read-out: contractile EC50; for contractile potency, in words: human umbilical vein. How it is done: The institutional research ethics board (CHU de Québec) approved the anonymous use of human umbilical cord segments obtained after elective cesarean section deliveries (file number: 2012-323). Informed written consent was obtained from mothers. Umbilical vein rings, used as a contractile bioassay for the BK B2R, were prepared and suspended in organ baths and submitted to equilibration in Krebs’ solution as described ([Marceau et al., 1994]; [Gera et al., 2011]). The vascular preparation was used to assess the effect of the peptidase inhibitors (introduced 30 min before the agonist) on the apparent potency of r-BK and r-BK-RR. The full cumulative concentration-effect curves were recorded for each peptide; a large concentration of BK (9.4 μM) was added to record the maximal contractile effect mediated by the B2Rs for low potency agonists. Tissues were used only once and discarded; controls curves were obtained from other vascular rings from the same vein.
(§1) Results are presented as means ± SEM. Radioligand binding data were fitted by non-linear regression to a one-site competition equation using a least-square method (Prism 5.0, GraphPad Software Inc., San Diego, CA, United States) and IC50 values calculated from this procedure. The same computer program was used to draw concentration-effect curves generated with the contractility assay (least square fitting of sigmoidal dose-response equation with variable slope) and to derive contractile EC50 values. Data describing the dose-response relationship of novel peptides vs. hypotension and heart rate changes, the baseline values of heart rate and mean arterial blood pressure and the effect of drugs on the hemodynamic responses to r-B K and r-BK-RR were assessed by using one-way analysis of variance (ANOVA) followed by the Dunnett’s test (repeated comparison with a common control; Prism 5.0 software).

Assay [3] addresses T1, rat myc-B2R (bradykinin B2 receptor) (Rattus norvegicus, UniProt P25023).
T1 construct: expressed in transfected cells
T1 sequence (P25023 1-396): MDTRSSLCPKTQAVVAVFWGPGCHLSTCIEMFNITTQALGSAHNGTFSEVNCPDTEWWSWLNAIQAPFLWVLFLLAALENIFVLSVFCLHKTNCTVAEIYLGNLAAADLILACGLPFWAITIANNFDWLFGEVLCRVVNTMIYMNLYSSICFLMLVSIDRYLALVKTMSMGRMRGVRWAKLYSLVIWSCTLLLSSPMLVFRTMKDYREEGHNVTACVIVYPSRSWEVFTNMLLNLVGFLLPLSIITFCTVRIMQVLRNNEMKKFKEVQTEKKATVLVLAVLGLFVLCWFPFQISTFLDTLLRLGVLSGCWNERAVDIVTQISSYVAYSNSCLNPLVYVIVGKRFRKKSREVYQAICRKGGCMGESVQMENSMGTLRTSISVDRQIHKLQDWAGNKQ
Nature of the assay: [3H]BK binding competition assay. To be noted: for affinity for rat B2R, in words: rat myc-B2R. How it is done:
Affinity for the B2R was evaluated using a radioligand binding competition assay performed at 0°C in the presence of peptidase inhibitors that included captopril and PMSF ([Charest-Morin et al., 2014]). Briefly, the binding of 3 nM [^3H]bradykinin (Perkin Elmer Life Sciences; 90 Ci/mmol) to adherent intact Human Embryonic Kidney (HEK 293) cells stably expressing the myc-tagged rat B2R construction ([Charest-Morin et al., 2017]) was applied to construct binding competition curves for a series of unlabeled peptides.
as §1

Assay [4] has as its system human ACE-mCherry fusion protein. Briefly: Competition of a fluorogenic ACE substrate by synthetic kinins (recombinant ACE-mCherry). In kind it is biochemical. To be noted: 15 min, 37°C. The method, then:
The source of enzyme was whole HEK 293a cells grown in 24-well plates and transfected as described with a vector coding for the human ACE-mCherry fusion protein, an active enzyme ([Charest-Morin and Marceau, 2016]). The culture medium was removed from cell wells, which were rinsed twice with PBS. The fluorogenic substrate (final concentration 20 μM), and, optionally, a competitor (BK, r-BK, or r-BK-RR in variable concentrations, or the ACE inhibitor enalaprilat 1 μM) were added in 250 μl PBS in each well; the plates were then incubated for 15 min at 37°C. At this point, the well supernatants were transferred in Eppendorf tubes, centrifuged 30 s at 12500 rpm to remove debris and 100 μl of this fluid transferred in wells of 96-well plate (black background) to read the fluorescence (excitation 320 nm, emission 420 nm) using a TECAN Infinite® 200 PRO microplate reader. Results were expressed as the percent of the fluorescence in wells containing ACE-mCherry and the substrate without competitors. Controls included mock-transfected cells and enalaprilat-treated cells.

Setting [5] is: + Plummer’s inhibitor 1 μM, 30 min before agonist.
Where [6] appears, read: + enalaprilat 1 μM + Plummer’s inhibitor 1 μM, 30 min before agonist.
Setting [7] is: + enalaprilat 1 μM, 30 min before agonist.

With `N=C(N)NCCC[C@@H](N)C(=O)N[C@@H](CCCNC(=N)N)C(=O)N1CCC[C@H]1C(=O)N1CCC[C@H]1C(=O)NCC(=O)N[C@@H](Cc1ccccc1)C(=O)N[C@@H](CO)C(=O)N1CCC[C@H]1C(=O)N[C@@H](Cc1ccccc1)C(=O)N[C@@H](CCCNC(=N)N)C(=O)O` [r-BK, D-Arg^0-BK] (H-[dR]RPPGFSPFR-OH), the “B2R-GFP internalization, in words” value in assay [1] (100 nM, 37°C, serum-containing culture medium, no inhibitor) is “the fluorescent receptor was internalized”. Further, the “B2R-GFP internalization with Plummer’s inhibitor, in words” value in assay [1] (100 nM, 15 min before) is listed as “no effect”. Besides, the “proportion of cells exhibiting internalization of B2R-GFP” value in assay [1] (with enalaprilat and/or Plummer’s inhibitor (not influenced by any)) is listed as above 90%. In addition, the EC50 in assay [2] (setting [5]) was determined as 68.4 nM; in assay [2] (setting [6]), 45.1 nM; in assay [2] (setting [7]) it was 61.6 nM; in assay [2] (control (no inhibitor)), 62.4 nM. The “effect of enalaprilat and/or Plummer’s inhibitor on contractile response, in words” value in assay [2] (enalaprilat and/or Plummer’s inhibitor, 1 μM each) is recorded as “essentially unaffected; also recorded: enalaprilat failed to potentiate r-BK”. Also, in assay [2], the “contractile potency, in words” value is listed as “potent contractile agent”. Also, in assay [3] ([3H]BK binding competition), the “affinity for rat B2R, in words” value is given as “practically equal to that of BK”. The “inhibition of ACE substrate hydrolysis, in words” value in assay [4] (competitor 20 μM (equal to substrate concentration), fluorescence) is listed as “nearly complete inhibition”.

For the compound `N=C(N)NCCC[C@@H](N)C(=O)N[C@@H](CCCNC(=N)N)C(=O)N1CCC[C@H]1C(=O)N1CCC[C@H]1C(=O)NCC(=O)N[C@@H](Cc1ccccc1)C(=O)N[C@@H](CO)C(=O)N1CCC[C@H]1C(=O)N[C@@H](Cc1ccccc1)C(=O)N[C@@H](CCCNC(=N)N)C(=O)N[C@@H](CCCNC(=N)N)C(=O)N[C@@H](CCCNC(=N)N)C(=O)O` [r-BK-RR, D-Arg^0-BK-Arg-Arg] (H-[dR]RPPGFSPFRRR-OH), the “B2R-GFP internalization with Plummer’s inhibitor, in words” value in assay [1] (100 nM, 15 min before) was “only a partial effect”. Besides, the “B2R-GFP internalization with enalaprilat + Plummer’s inhibitor, in words” value in assay [1] (100 nM, both inhibitors 15 min before) is on record as “suppress the effect of r-BK-RR”. In addition, the “B2R-GFP internalization with enalaprilat, in words” value in assay [1] (100 nM, enalaprilat alone, 15 min before) is listed as “suppress the effect of r-BK-RR”. Further, the “effect of combination Plummer’s inhibitor + enalaprilat vs. enalaprilat alone, in words” value in assay [2] (1 μM each) is “not significantly more effective than enalaprilat alone”. The EC50 in assay [2] (setting [5]) was found to be 850 nM; in assay [2] (setting [6]) it was 1760 nM; in assay [2] (setting [7]), 1510 nM; in assay [2] (control (no inhibitor)), 431 nM. Moreover, the “effect of Plummer’s inhibitor on apparent contractile potency, in words” value in assay [2] (Plummer’s inhibitor 1 μM) is on record as “only slightly decreased the apparent potency”. In addition, the “contractile potency, in words” value in assay [2] is “less potent than r-BK but more potent than anticipated from the radioligand binding competition assay”. In addition, in assay [3] (100 nM), the “competition on the binding of [3H]BK to B2R, in words” value is given as “little competition”. For the same compound, the “affinity for rat B2R, in words” value in assay [3] ([3H]BK binding competition) is “direct micromolar affinity; also recorded: very little direct affinity for B2R”. The “decrease of receptor affinity (less potent)” value in assay [3] (r-BK-RR, [3H]BK binding competition, rat B2R) is recorded as 61 fold. In addition, the “competition for recombinant ACE, relative affinity, in words” value in assay [4] (Abz-Phe-Arg-Lys(Dnp)-Pro-OH 20 μM, HEK 293a cells with ACE-mCherry, PBS, fluorescence ex 320 / em 420 nm) was “only slightly less potent than the two other peptides”.
